On to `CCCn1c(-c2ccc(I)cc2)nc2cc(C#N)c(C#N)cc21`, for which the melting point (in general, the temperature, or range, at which the solid turns liquid) is 208 to 209 °C.

With `CS(=O)(=O)c1ccc(C(CC2CCCC2)C(=O)Nc2ncc(C(N)=O)s2)cc1` (centres undefined), the melting point is 155 to 160 °C.

The molecule `Cc1cnc2c(c1)S(=O)(=O)N(Cc1ccccc1)C2=O` had a melting point of 167 to 170 °C.

`Clc1ccc(CN2CCN=C2Cc2ccccc2)c(Cl)c1`: the melting point is 185 to 189 °C.

As for `CCC1CN(Cc2ccccc2)c2c3c(nc4cccc(c24)O1)CCCC3` (centres undefined), the melting point was 148 to 149 °C.

The molecule `Cc1sc2c(Br)c3ccccc3c(-c3cc(Br)c(O)c(NC(=O)OC(C)(C)C)c3)c2c1C` had a melting point of 205 to 207 °C.

The molecule `CNCC1Cc2cc(F)cc(-c3ccccc3C)c2O1` (centres undefined) registered a melting point of 123 to 124 °C.

Molecule `c1ccn2nc(-c3ccncc3)nc2c1` had a melting point of 188 to 190 °C.

For the molecule `N#Cc1ccc2[nH]c(-c3ccc(-c4ccc(C#N)c(F)c4)cc3)nc2c1`, the melting point lay within 302 to 305 °C.

Molecule `CC(C)(C)CC(=O)Nc1ccc2oc3c(c2c1)CCC3` showed a melting point of 196 to 197 °C.

In turn, `CN(C(=O)c1ccc2nsnc2c1)C1CCOCC1` registered a melting point of 106 to 108 °C.

Regarding `O=C1CCC(c2ccc(C(=O)Nc3ccccc3F)cc2)=NN1`, the melting point is 242 to 244 °C.

As to `COCOc1cc(OC)ccc1C=O`, the melting point fell in the range of 55 to 56 °C.

In turn, `CCC(=O)Nc1cccc(NC(=O)CC(C)(OC)OC)c1` returned a melting point of 115 °C.

Molecule `COC(=O)CC1Oc2ccccc2Oc2ccccc21` (centres undefined) registered a melting point of 72 to 74 °C.

`Cc1c(C)c2c(c(C)c1N)CC(C)(CN1CC=C(c3c[nH]c4ccccc34)CC1)O2` (centres undefined) showed a melting point of 169 to 173 °C.

The molecule `COC1N=C(c2ccccc2Cl)c2cc(Cl)ccc2-c2c[nH]cc21` (centres undefined) registered a melting point of 215 to 218 °C.

Regarding `Cc1c(N2CCC(N(C)Cc3ccccc3)C2)c(F)cc2c(=O)c(C(=O)O)cn(C3CC3)c12` (centres undefined), the melting point is 161 °C.

As to `COCc1nnc(-c2ccc3occ(-c4cccc(OC(F)(F)F)c4)c3c2)o1`, the melting point lay within 90 to 91 °C.

Regarding `COc1cc2cnnc(N3CCC(CCN(C)C(=O)NC4CCCCC4)CC3)c2cc1OC`, the melting point lay within 204 to 206 °C.

`CC(=O)C(=O)N1C(C(=O)OCc2ccccc2)CC2CCCCC21` (centres undefined) returned a melting point of 50 to 55 °C.

Consider `CCCNC(=O)CCc1ccc2c(c1)c(Cc1ccc(C(=O)O)cc1OC)cn2CCC`, for which the melting point was 68 to 78 °C.

Turning to `COc1cc(C(=O)O)ccc1OC(=O)c1ccc(OC)c(C23CC4CC(CC(C4)C2)C3)c1`, the melting point was 282 to 284 °C.

The molecule `C[C@@H]1CN(c2ccc(-c3[nH]nc4c3C(=O)c3c(NC(=O)NN5CCOCC5)cccc3-4)cc2)C[C@H](C)N1` showed a melting point of 237 °C.

Take `CCc1c(NC(=O)c2cc(S(C)(=O)=O)ccc2OCC(C)C)c(C(N)=O)nn1CCN1CCOCC1`: the melting point was 200 to 203 °C.

Molecule `CC(C)(C)OC(=O)CN(C(=O)CN1C(=O)c2ccccc2C1=O)c1ccccc1C(=O)N1CCCc2ccccc21` had a melting point of 150 °C.

For `O=c1c(-c2ccccc2)c(-c2ccccc2)sn1-c1ccccc1`, the melting point was in the range of 175 to 176 °C.

As to `CC(C)N1CCC(CN2CCN(CCCN3CCCCC3)C2=C(C#N)C#N)CC1`, the melting point lay within 115 to 117 °C.

In turn, `COc1cc(F)ccc1C(=O)NCCN1CCC(O)(c2ccc(Cl)cc2)CC1` came in with a melting point of 157 °C.

Molecule `COc1ccc(CCN2CCN(C(=O)c3ccc(N(CCOC(C)C)C(=O)CCl)cc3)CC2)cc1` yielded a melting point of 139 to 140 °C.

`O=C(CC(F)=C(F)F)Oc1ccc([N+](=O)[O-])cc1` gave a melting point of 58 to 62 °C.

In the case of `C#CCOc1cc(-n2ncc(=O)n(C)c2=O)c(Cl)cc1Cl`, the melting point fell in the range of 119 to 120 °C.

Molecule `COc1c(C)c(C)c(OC)c(C(O)(c2ccccn2)C(C)C)c1C` (centres undefined) displayed a melting point of 99 to 100 °C.

Regarding `Cc1c(Cl)cc(C2=NNC(=O)CC2O)cc1Cl` (centres undefined), the melting point lay in the range of 253 to 256 °C.

On to `COc1ccc(-n2nc(Sc3ccc(OC(F)(F)F)cc3)c(C)c(C#N)c2=O)cc1`, for which the melting point fell in the range of 165 to 167 °C.

As to `CCOC(=O)C1=Cc2cc(Cl)cc(C=NO)c2OC1C(F)(F)F` (centres undefined), the melting point was 187 to 188 °C.

Molecule `CC(C)c1n[nH]c2c(NCc3ccc(O)cc3)ncnc12` yielded a melting point of 234 to 236 °C.

Take `COc1cccc(Cc2cc(F)ccc2O)c1`: the melting point is 153 to 155 °C.

For `O=C(O)CCSC(=S)NCc1ccc(Cl)cc1`, the melting point was 104 to 105 °C.

Molecule `CN(C)CCNc1ccc(-c2n[nH]c3ncccc23)cc1` had a melting point of 165 to 167 °C.

`Nc1cc(Cl)cc(Cl)c1C(=O)NCc1cccc(Cl)c1`: the melting point is 167 to 171 °C.

Regarding `CSc1nc(Cl)c(C#N)c(Cl)n1`, the melting point came out at 107 °C.

`CCOP(=O)(Cc1ccc(N)c2ccccc12)OCC` yielded a melting point of 73 to 74 °C.

`CCCc1nc2c(N)nc(C)c(C)c2n1NC1CCCCC1` yielded a melting point of 177 to 179 °C.

`O=C(CO)NCCCCCCCCCCCCNC(=O)CO` had a melting point of 94 to 97 °C.

For the molecule `CCOC(=O)C(=O)Nc1nc(CN2CCN(C(c3ccccc3)c3ccccc3)CC2)cs1`, the melting point is 125 to 128 °C.

In turn, `Oc1cc(Br)c2oc(-c3ccc(O)c(C(F)(F)F)c3)nc2c1` had a melting point of 183 to 185 °C.

As to `CCCCCNC1=CC(=O)c2c(OC)ccc(OC)c2C1=O`, the melting point lay in the range of 102 to 103 °C.

The molecule `Cn1c(CCN2CCC(c3ccccc3)CC2)nc2cc(Br)c3ccccc3c21` gave a melting point of 182 to 184 °C.

In the case of `CC(C)NC(=O)c1ccc(-c2ccc3oc(C4CCN(C(=O)OC(C)C)CC4)nc3c2)cc1F`, the melting point was 147 to 150 °C.

For `N#Cc1c(N)[nH]c(Br)c1C#N`, the melting point is over 210 °C.

`COc1cc(Nc2ccccn2)ccc1C(N)=O` displayed a melting point of 226 to 227 °C.

In turn, `CCOC(=O)Cc1sc(NC(=O)Nc2ccccc2)nc1-c1ccc(Cl)cc1` yielded a melting point of 192 to 193 °C.

In turn, `COc1ccc(OC)c(C2(C(C)(C)O)CCN(C)CC2)c1` registered a melting point of 139 to 140 °C.

Molecule `O=c1c(Cc2ccccn2)cc2cccnc2n1-c1cccc([N+](=O)[O-])c1` yielded a melting point of 229 to 231 °C.

`CCCc1ccc(CCNC(C)=O)cc1` registered a melting point of 52 °C.

Turning to `O=Cc1cc([N+](=O)[O-])ccc1OC/C=C/CCl`, the melting point was in the range of 65 to 66 °C.

Molecule `COCOCC(=O)C1CCC2C3CCC4=CC(=O)CCC4(C)C3CCC12C` (centres undefined) registered a melting point of 195 °C.

The molecule `Cc1cc([N+](=O)[O-])c(Cl)cc1Cl` showed a melting point of 40 to 44 °C.

`CCNc1cc(NS(=O)(=O)c2ccc(C(C)(C)C)cc2)nc(NCC)n1` registered a melting point of 316 to 318 °C.

For the molecule `CC(=O)NN=Cc1ccc2ccccc2n1`, the melting point was 218 to 219 °C.

As to `Nc1nc(NCCC2=CCCCC2)nc2c1ncn2C1OC(CO)C(O)C1O` (centres undefined), the melting point was 135 to 138 °C.

Regarding `CN(C)Cc1c[nH]c2ccc(OCc3ccccc3)c(Cl)c12`, the melting point is 137 to 139 °C.

For the molecule `O=C1c2ccc(Cl)cc2CC1(F)Br` (centres undefined), the melting point is 104 to 105 °C.

In turn, `C#CCN1CCC(OC)(c2cc(F)cc(Sc3ccc(C(C)=NO)cc3)c2)C1` (centres undefined) gave a melting point of 97 to 99 °C.

For the molecule `CN(C)CCOc1ccc2[nH]c(C(=O)N3CC(CCl)c4c3cc(OCc3ccccc3)c3ncccc43)cc2c1` (centres undefined), the melting point fell in the range of 176 to 179 °C.

`CCOC(=Cc1ccc(-c2cccc(N(C)C(=O)Nc3ccc(C)cc3)c2)cc1)C(=O)O` had a melting point of 92 °C.

The molecule `CN(C)CSc1ccc(-n2cnnn2)cc1` displayed a melting point of 56 to 57.5 °C.

For the molecule `COc1cccc(-c2c(C)c(NC(=O)CC(C)(C)C)c(C)c3c2OCC3c2ccc(C(C)C)cc2)c1` (centres undefined), the melting point was in the range of 209 to 210 °C.

As to `COc1ccc(CSc2cc(C(=O)Nc3ccc(C#N)cc3)ccn2)cc1`, the melting point fell in the range of 201 to 203 °C.

Molecule `CC(NC(=O)C(F)(F)F)C(=O)O` (centres undefined) gave a melting point of 68 °C.

`COc1ccc2[nH]cc(C=C3OC(=O)N(Cc4cc(C(F)(F)F)cc(C(F)(F)F)c4)C3=O)c2c1` yielded a melting point of 147 to 149 °C.

For the molecule `CCOc1ccc(Cc2cn(C3OC(COC(C)=O)C(OC(C)=O)C(OC(C)=O)C3OC(C)=O)c3cccc(F)c23)cc1` (centres undefined), the melting point was 146 to 148 °C.

`COc1cccc(O[C@@H]2COc3ccc(OCc4ccccn4)cc3[C@@H]2O)c1` (relative stereo) registered a melting point of 105 to 107 °C.

Molecule `CCCNC(=O)C(=CN(C)C)C(=O)c1ccccc1Cl` displayed a melting point of 76 to 78 °C.

`O=C(O)c1ccc(-n2cc(C3c4ccccc4C=Cc4ccccc43)c(=S)[nH]c2=O)cc1` gave a melting point of 320 °C.

For the molecule `COc1ccc2c(-c3ccccc3F)noc2c1I`, the melting point is 135 to 138 °C.

In turn, `Cc1cc(C)c(C2C(=O)N3CCCCN3C2=O)c(C)c1` yielded a melting point of 247 to 248 °C.

Turning to `O=C(O)c1cc(O)c2c3c(cc(Br)c2n1)S(=O)c1ccccc1-3` (centres undefined), the melting point was in the range of 289 to 290 °C.

With `Cc1ccc2c(c1)c(Cl)c(C#N)c(=O)n2Cc1ccc(F)cc1`, the melting point stood at 206 °C.

Turning to `CCCCCCCCCCCCNC(=O)CC(Br)C(=O)O` (centres undefined), the melting point lay within 62 to 70 °C.

For `CC(C)(C)c1ccc(-c2cccc(-c3ccc(C(C)(C)C)cc3)c2N)cc1`, the melting point was 106 °C.

`CC1(C(=O)c2c[nH]c3ncc(-c4ccc(N5CCOCC5)cc4)nc23)CCCCC1` showed a melting point of 233 to 235 °C.

Molecule `CC1(C(=O)c2c[nH]c3ncc(-c4cccc(N5CCN(C(=O)CC#N)CC5)c4)nc23)CCCCC1` came in with a melting point of 214 to 216 °C.

Regarding `CC(=O)OCc1c(-c2cc(Nc3cc(CN4CCC4)n(C)n3)c(=O)n(C)n2)cccc1-n1ncc2cc(C(C)(C)C)cc(F)c2c1=O`, the melting point is 214 to 217 °C.

`COc1ccc2c(c1)SC(C#N)=C(N)CO2` gave a melting point of 203 to 205 °C.

Regarding `COc1ccc(OC)c2c1ccn2Cc1ccc(Cl)cc1`, the melting point lay within 62 to 63 °C.

In turn, `O=c1[nH]c(=O)n(Cc2cccc(OCc3noc(-c4ccc(C(F)(F)F)cc4)n3)c2)o1` had a melting point of 90 to 91 °C.

For the molecule `c1ccc2c3c(cnc2c1)OCCN3`, the melting point lay in the range of 175 to 176 °C.
